Publication PMC4229119, “Alzheimer's Therapeutics Targeting Amyloid Beta 1–42 Oligomers II: Sigma-2/PGRMC1 Receptors Mediate Abeta 42 Oligomer Binding and Synaptotoxicity” (PLoS ONE, 2014)

Columns and labels:
[1] = tested on: synapses; set-up: method as in PMID 25390368; conditions: cited from earlier work
[2] = target: T1, sigma-2/PGRMC1 receptor (Homo sapiens, UniProt Q5BJF2); test: Sigma-2 radioligand binding ([3H]DTG competition, Jurkat cell membranes; Cerep 0148); conditions: homogenates of a human T cell line; mean ± S.E.M.; read-out: Ki, displacement of selective radioligand [3H]-DTG from sigma-2/PGRMC1 receptor
T1 construct: host or cells: Jurkat cell membranes
T1 sequence (Q5BJF2 whole entry): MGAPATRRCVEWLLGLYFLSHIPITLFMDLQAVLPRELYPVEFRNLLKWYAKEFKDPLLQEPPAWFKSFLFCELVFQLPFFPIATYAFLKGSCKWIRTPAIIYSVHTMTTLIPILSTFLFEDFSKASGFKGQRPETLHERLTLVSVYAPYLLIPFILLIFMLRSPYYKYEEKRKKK
Procedure: Radioligand competition assays were performed in membranes from Jurkat cells using 5 nM [^3H]1,3-di(2-tolyl) guanidine in the presence of 1 µM (+)-pentazocine with 10 µM haloperidol to define non-specific binding.

[3] = target: T2, Sigma-1 (Homo sapiens, UniProt Q99720); test: Cerep panel: Sigma-1 radioligand binding; conditions: Cerep 0889
T2 construct: purchased Cerep/Eurofins, Inc. 0889
T2 sequence (Q99720 whole entry): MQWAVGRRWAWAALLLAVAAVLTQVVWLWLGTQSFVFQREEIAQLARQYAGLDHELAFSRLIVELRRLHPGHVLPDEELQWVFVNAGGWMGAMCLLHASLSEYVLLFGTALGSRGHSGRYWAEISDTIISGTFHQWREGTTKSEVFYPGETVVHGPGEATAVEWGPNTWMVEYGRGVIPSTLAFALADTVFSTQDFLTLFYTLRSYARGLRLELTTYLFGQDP
Procedure: (§1) Active CogRx molecules were counterscreened for activity at 100 central nervous system receptors and enzymes (including those involved in neurotransmission and synaptic plasticity) in industry-standard assays measuring radioligand binding displacement and signaling activity (assays performed at Cerep/Eurofins, Inc., Table S1). […] To determine if these compounds were capable of displacing binding to sigma-2/PGRMC1 receptors in human brain, CT0093 and CT0109 were added in increasing concentrations to serial sections of unfixed frozen cognitively normal elderly human frontal cortex in the presence of a specific radioligand for sigma-2/PGRMC1, ^125I-RHM-4 [31] ( Fig. 1 B–D ).

[4] = tested on: caspase-3/7; test: Caspase-3/7 activation in primary hippocampal/cortical cultures; type: cell-based, rat; conditions: for activation of caspase-3/7: primary hippocampal/cortical cultures
Procedure: (§2) Little is known about the functional pharmacology of ligands for the sigma-2/PGRMC1 receptor. […] Finally, we treated hippocampal and cortical cultures with ascending concentrations of SV119 to induce caspase activation, in the presence of 40 µM of each of the sigma-2/PGRMC1 antagonists CT0109, CT0093 and RHM-1 ( Fig. 8E ).

[5] = target: T3, mu opioid (Homo sapiens, UniProt P35372); test: Cerep panel: mu opioid radioligand binding; conditions: Cerep 0118
T3 construct: purchased Cerep/Eurofins, Inc. 0118
T3 sequence (P35372 whole entry): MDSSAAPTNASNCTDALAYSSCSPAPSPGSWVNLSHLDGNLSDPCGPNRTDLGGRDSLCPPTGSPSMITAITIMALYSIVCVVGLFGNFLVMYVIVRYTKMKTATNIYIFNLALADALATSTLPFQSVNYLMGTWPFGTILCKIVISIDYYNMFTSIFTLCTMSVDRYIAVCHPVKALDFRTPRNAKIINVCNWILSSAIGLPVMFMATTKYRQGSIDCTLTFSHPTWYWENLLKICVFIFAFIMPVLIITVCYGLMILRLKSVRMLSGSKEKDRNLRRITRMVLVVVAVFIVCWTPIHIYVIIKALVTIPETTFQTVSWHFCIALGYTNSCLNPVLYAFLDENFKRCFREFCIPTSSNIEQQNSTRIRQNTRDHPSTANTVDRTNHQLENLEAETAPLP
Procedure: as §1

[6] = target: T4, Dopamine 3 (Homo sapiens, UniProt P35462); test: Cerep panel: Dopamine 3 agonist activity; type: cell-based; conditions: Cerep 0683
T4 construct: purchased Cerep/Eurofins, Inc
T4 sequence (P35462 whole entry): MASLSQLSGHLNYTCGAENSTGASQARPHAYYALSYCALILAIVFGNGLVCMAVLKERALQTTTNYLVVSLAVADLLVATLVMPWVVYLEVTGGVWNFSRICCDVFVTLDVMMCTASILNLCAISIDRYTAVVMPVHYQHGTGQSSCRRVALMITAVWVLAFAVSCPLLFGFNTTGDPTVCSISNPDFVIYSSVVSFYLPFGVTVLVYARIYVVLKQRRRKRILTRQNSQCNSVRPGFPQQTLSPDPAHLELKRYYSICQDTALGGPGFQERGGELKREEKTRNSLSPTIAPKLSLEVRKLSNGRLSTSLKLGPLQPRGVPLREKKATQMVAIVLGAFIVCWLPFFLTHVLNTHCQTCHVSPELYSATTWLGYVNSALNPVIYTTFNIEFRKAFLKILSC
Procedure: as §1

[7] = target: Na^+ Channel (site2); test: Cerep panel: Na+ Channel (site2) radioligand binding; conditions: Cerep 0169
Procedure: as §1

[8] = tested on: caspase-3/7; test: Caspase-3/7 activation in SKOV-3 tumor cell line; type: cell-based, human
[9] = tested on: mouse models of Alzheimer's disease; set-up: method as in PMID 25390368; conditions: cited from earlier work
[10] = tested on: primary hippocampal/cortical cultures; test: Cell death in mature primary neuronal cultures; type: cell-based, rat
[11] = tested on: caspase-3/7; test: SV119-induced caspase-3/7 activation in hippocampal and cortical cultures, co-treatment with antagonists; type: cell-based, rat; conditions: for block of the activation of caspase-3/7 by SV119: 40 µM antagonist, ascending concentrations of SV119, hippocampal and cortical cultures
Procedure: as §2

[12] = tested on: SKOV-3 human ovarian cancer cells; test: Cell death in SKOV-3 human ovarian cancer cells; type: cell-based
[13] = tested on: mixed cultures of hippocampal plus cortical neurons and glia; set-up: method as in PMID 25390368; conditions: cited from earlier work
[14] = target: T5, sigma-2/PGRMC1 receptors in human brain (Homo sapiens, UniProt Q5BJF2); test: Quantitative autoradiography, radioligand displacement from human frontal cortex sections; conditions: serial sections of unfixed frozen cognitively normal elderly human frontal cortex; 10-10,000 nM compound; N = 4; read-out: Ki at the [125I]RHM-1 binding site, human frontal cortex
T5 construct: serial sections of unfixed frozen cognitively normal elderly human frontal cortex; from tissue; host or cells: human frontal cortex, unfixed frozen sections
T5 sequence (Q5BJF2 whole entry): as the sequence (Q5BJF2 whole entry) above
Procedure: Quantitative autoradiography studies on frozen unfixed serial tissue sections from normal (N = 4) or Alzheimer's disease (N = 4) postmortem patients' neocortex were conducted and quantified according to previously published procedures [40]. [^3H](+) pentazocine was used as the radioligand for sigma-1 receptors and [^125I]RHM-1 (American Radiolabelled Chemicals, Inc.) or [^3H]DTG (1,3-Di-(2-tolyl)guanidine (Perkin Elmer) in the presence of 1 µM (+) pentazocine for sigma-2 receptors [32]. Human brain samples for these studies were obtained with written consent as previously published [40].

[15] = target: hippocampal and cortical neurons; test: Abeta binding assay (Abeta oligomer binding to synaptic puncta of cultured neurons); type: cell-based, rat
Procedure: To assess the ability of test compounds to prevent the binding of Abeta oligomers, cultures were treated with compounds for 30 minutes, followed by synthetic Abeta 1–42 oligomer preparation treatment for 60 min (total Abeta concentration 0.5 µM, equivalent to Kd concentration). Alternatively, displacement of prebound oligomers was evaluated by adding oligomers 60 min prior to the addition of compounds, followed by additional 30 minutes incubation. […]
Neuronal cultures were treated with either a mixture of 4 siRNAs targeted against PGRMC1 (GUCUAGGUCUUGGAUAAUA, GGUUUUACCUCAAAUCAGA, UUAGAAUGCAUGAUGUGUU, CUUCUAUCUGUAGUUAAAA, catalog number A-095365-00-0050) or a non-targeting sequence (UGGUUUACAUGUUUUCCUA, catalog number D-001910-03-50, Accell, ThermoFisher). siRNA were resuspended to 100 µM in RNase free water, shaken for 1.5 hours at 37°C, diluted in media and applied to cells at 1 or 2 uM for 48 hours prior to addition of Abeta oligomers for 30 minutes. Cultures were then fixed and co-immunolabeled with 6E10 antibody to detect Abeta and antibody to detect PGRMC1 as described above and analyzed via automated image processing as described above. For PGRMC1 measurements, total intensity in cell bodies was measured. […]

[16] = tested on: sigma-2/PGRMC1; test: Immunofluorescent sigma-2/PGRMC1 expression in neuronal cultures; type: cell-based, rat; conditions: for increase of total intensity of sigma-2/PGRMC1 expression in the cell body: 400 nM Abeta oligomers, pooled neurons and glia, vs vehicle
Procedure: To assess the ability of test compounds to prevent the binding of Abeta oligomers, cultures were treated with compounds for 30 minutes, followed by synthetic Abeta 1–42 oligomer preparation treatment for 60 min (total Abeta concentration 0.5 µM, equivalent to Kd concentration). Alternatively, displacement of prebound oligomers was evaluated by adding oligomers 60 min prior to the addition of compounds, followed by additional 30 minutes incubation. Cells were fixed with 3.75% formaldehyde for 15 min, blocked with 5% normal goat serum and 0.5% Triton X-100 and incubated with primary antibodies for Abeta (1 µg/ml 6E10 or 4G8, Covance catalog numbers SIG-39320 and SIG-39330, respectively), MAP-2 (0.2 µg/ml Chemicon), Synaptophysin-1 (1 µg/ml, Anaspec), glial fibrillary acidic protein (GFAP, 1 µg/ml, Thermo-Fisher) and fluorescently labeled secondary antibodies (2 µg/ml, Invitrogen). Images were acquired on a Cellomics VTi automated microscope with a 20X, 0.75 NA objective and analyzed using ThermoFisher/Cellomics Neuronal Profiling bioapplication set to measure punctate labeling of Abeta and synaptophysin-1 along MAP-2 labeled neurites. For each replicate experiment, at least 100 neurons were sampled from 4 replicate wells for each experimental condition (400 to 500 neurons per experimental condition). […]
Neuronal cultures were treated with either a mixture of 4 siRNAs targeted against PGRMC1 (GUCUAGGUCUUGGAUAAUA, GGUUUUACCUCAAAUCAGA, UUAGAAUGCAUGAUGUGUU, CUUCUAUCUGUAGUUAAAA, catalog number A-095365-00-0050) or a non-targeting sequence (UGGUUUACAUGUUUUCCUA, catalog number D-001910-03-50, Accell, ThermoFisher). siRNA were resuspended to 100 µM in RNase free water, shaken for 1.5 hours at 37°C, diluted in media and applied to cells at 1 or 2 uM for 48 hours prior to addition of Abeta oligomers for 30 minutes. Cultures were then fixed and co-immunolabeled with 6E10 antibody to detect Abeta and antibody to detect PGRMC1 as described above and analyzed via automated image processing as described above. For PGRMC1 measurements, total intensity in cell bodies was measured.

| Compound | activation of caspase-3/7 [4] | activation of caspase-3/7 [8] | concentrations at which cell viability is affected [10] [µM] | block of the activation of caspase-3/7 by SV119 [11] | concentrations at which cell viability is affected [12] [µM] | dose-dependent cell death [10] | dose-dependent cell death [12] | other results |
| --- | --- | --- | --- | --- | --- | --- | --- | --- |
| COc1cc(CCC(C)NCc2ccc(C(F)(F)F)cc2)ccc1O (centres unmarked) [CT0109] | did not | did not | > 100 | significantly blocked the activation of caspase-3/7 by SV119 | > 100 | – | – | restoration of synapses [1]: restore synapses to normal; Ki [2]: 9 ± 7 nM; Ki [3]: 500 nM; Ki [5]: 1700 nM; EC50 [6]: 4100 nM; Ki [7]: 2000 nM; restoration of cognitive function [9]: restore cognitive function; reversal of Abeta oligomer-mediated trafficking deficits [13]: reverse Abeta oligomer-mediated trafficking deficits; Ki [14]: 57 ± 23 nM |
| COc1cc2c(cc1OC)CN(CCCCNC(=O)c1cc(C)ccc1OC)CC2 [RHM-1] | did not | did not | > 100 | did not | > 100 | – | – | – |
| COc1ccc(C)cc1NC(=O)OC1C[C@H]2CCC[C@@H](C1)N2CCCCCCN (some centres unmarked) [SV-119] | – | – | – | – | – | caused dose-dependent cell death | caused dose-dependent cell death | activation of caspase 3/7 ([11]; 20 to 80 µM for 24 hours, hippocampal and cortical cells, p<0.05 vs control): induced the activation of caspase 3/7 |
| Fc1ccc(-n2cc(CCCCN3CCC4(CC3)OCc3ccccc34)c3ccccc32)cc1 [siramesine] | activated caspase-3/7 | activated caspase-3/7 | – | – | – | caused dose-dependent cell death | caused dose-dependent cell death | – |
| Abeta oligomers: synthetic Abeta 1–42 oligomer preparation | – | – | – | – | – | – | – | oligomer-induced caspase activation ([4]; 21 DIV primary hippocampal and cortical neuronal cultures, 3–48 hours, up to 28 uM): unable to detect oligomer-induced caspase activation; Kd ([15]; specific and saturable binding, read-out: Kd, binding to a single receptor site on neuronal synaptic puncta): 518 ± 41 nM; increase of total intensity of sigma-2/PGRMC1 expression in the cell body ([16]; 24 hours): 13%; increase of total intensity of sigma-2/PGRMC1 expression in the cell body ([16]; 48 hours): 28% |
| Non-targeting siRNA: non-targeting sequence UGGUUUACAUGUUUUCCUA, catalog number D-001910-03-50 (further chemistry not given here) [reference compound] | – | – | – | – | – | – | – | reduction in Abeta oligomer binding ([15]; siRNA 1 or 2 µM, 48 hours, then Abeta oligomers 30 minutes, vs untreated cultures): has no effect; reduction in immunocytochemically detectable sigma-2/PGRMC1 protein in neuronal cell body and synaptic puncta ([16]; siRNA 1 or 2 µM, 48 hours, vs untreated cultures): has no effect |
